The values below come from patent US8293979B2, “Weed controller metabolism proteins, genes, thereof and use of the same” (Sumitomo Chemical Company, Limited, priority 2001, dated 2012).

Series [1] relates to present invention protein (A24). Kind of series: Metabolism of compounds by the present invention protein (A24), reaction solution, HPLC. It counts as in vitro ADME, Streptomyces rutgersensis IFO 15875T. The conditions noted are these: 12.5 ppm of compound, components A, B, C, 20 μl supernatant fraction of Example 65(2), 30° C. for 10 minutes.
Series [2] relates to present invention protein (A14). Kind of series: Detection of the ability to convert compound (II) to compound (III), E. coli pKSN1491AF extract. The conditions noted are these: 3 ppm of compound (II) labeled with 14C, components A, B, 10 minutes at 30° C. It counts as in vitro ADME, Streptomyces glomerochromogenes IFO 13673t. The procedure:
(§1) Reaction solutions of 30 μl were prepared and maintained for 10 minutes at 30° C. The reaction solutions consisted of a 0.1M potassium phosphate buffer (pH7.0) containing 3 ppm of compound (II) labeled with ^14C, 2 mM of β-NADPH (hereinafter, referred to as “component A”) (Oriental Yeast Company), 2 mg/ml of a ferredoxin derived from spinach (hereinafter referred to as “component B”) (Sigma Company), 0.1 U/ml of ferredoxin reductase (hereinafter, referred to as “component C”) (Sigma Company) and 23 μl of the supernatant fraction recovered in Example 32(2). Similarly to Example 4(3), the reaction solutions after the maintenance were extracted with ethyl acetate and the extracted layers were TLC analyzed. […] A spot corresponding to compound (III) was detected from the reaction solution containing E. coli pKSN849AF extract. In contrast, such a spot was not detected from the reaction solution containing E. coli pKSN2 extract.
Reaction solutions of 30 μl were prepared and maintained for 10 minutes at 30° C. […] The reaction solutions after the maintenance were extracted with ethyl acetate and the extracted layers were TLC analyzed. […] A spot corresponding to compound (III) was detected from the reaction solution containing E. coli pKSN1491AF extract. In contrast, such a spot was not detected from the reaction solution containing E. coli pKSN2 extract.

The next series has as its system Barnyardgrass. The series can be described thus: Herbicidal activity test, soil surface treatment. It counts as in vivo, Echinochloa crus-galli. More on the design: key: 0: situations in which the condition of sprouting or vegetation at the time of examination of the plant utilized for the test was compared with and showed totally or substantially no difference with that of the untreated application; 10: situations in which the plant completely withered or the sprouting or vegetation was completely suppressed. The conditions noted are these: 500 g/ha, sprayed onto the surface of the soil after seeding, investigated after 19 days in a greenhouse. Here is the method:
(§2) Soil was packed into a round plastic pot having a diameter of 10 cm and depth of 10 cm. Barnyardgrass, Blackgrass, Ivyleaf morningglory were seeded. Five (5) parts of the test compound, 6 parts of sorpol3005X (Toho Chemical Company) and 89 parts of xylene were well mixed to produce an emulsion. A certain amount thereof was diluted with water containing 0.1% (v/v) of a sticking agent at a proportion of 1000 L for 1 hectare and was spread uniformly with a spray-gun onto the surface of the soil. After cultivating the plants for 19 days in a greenhouse, the herbicidal activity was investigated.
(§3) In the above Tables 3 and 4, the strength of the herbicidal activity is shown stepwise as 0, 1, 2, 3, 4, 5, 6, 7, 8, 9, and 10.

The subject of series [3] is present invention protein (A17). The series can be described thus: Detection of the ability to convert compound (II) to compound (III), E. coli pKSN608F extract. The conditions noted are these: 3 ppm of compound (II) labeled with 14C, components A, B, 10 minutes at 30° C. The class given is in vitro ADME, Streptomyces griseus ATCC 10137. The procedure:
as §1
Similarly to Example 32(3), reaction solutions of 30 μl were prepared and maintained for 10 minutes at 30° C. […] The reaction solutions after the maintenance were extracted with ethyl acetate and the extracted layers were TLC analyzed. […] A spot corresponding to compound (III) was detected from the reaction solution containing E. coli pKSN608F extract. In contrast, such a spot was not detected from the reaction solution containing E. coli pKSN2 extract.

For series [4], the system named is leaf pieces derived from the tobacco to which the present invention DNA (A2) was introduced. Kind of series: Herbicidal damage of tobacco leaf pieces on MS agar medium containing compound (II). It counts as cell-based. Particulars: MS agar medium containing 0.1 mg/L of compound (II), in the light at room temperature, 7th day of culturing. An excerpt:
Leaf pieces of sterily cultured tobacco were infected with each of the agrobacterium strain bearing pBI-NdG6-rSt-923 and the agrobacterium strain bearing pBI-NdG6-rSt12-923. Tobaccos in which the present invention DNA (A2) has been introduced were obtained under the procedures similar to the methods described in Example 19.
Three (3) leaves were taken from the obtained transgenic tobacco. Each leaf was divided into 4 pieces in which each piece was 5 to 7 mm wide. Each of the leaf pieces were planted onto MS agar medium containing 0.1 mg/L of compound (II) and cultured in the light at room temperature. On the 7th day of culturing, the herbicidal damage of each of the leaf pieces was observed.

The test system of the next series is Ivyleaf morningglory. The series can be described thus: Herbicidal activity test, soil surface treatment. The class given is in vivo, Ipomoea hederacea. The conditions noted are these: 500 g/ha, sprayed onto the surface of the soil after seeding, investigated after 19 days in a greenhouse. More on the design: key: 0: situations in which the condition of sprouting or vegetation at the time of examination of the plant utilized for the test was compared with and showed totally or substantially no difference with that of the untreated application; 10: situations in which the plant completely withered or the sprouting or vegetation was completely suppressed. Here is the method: as §2, §3

Series [5] has as its system present invention protein (A25). The series can be described thus: Detection of the ability to convert compound (II) to compound (III), E. coli pKSN1609F extract. Particulars: 3 ppm of compound (II) labeled with 14C, components A, B, 10 minutes at 30° C. It counts as in vitro ADME, Streptomyces steffisburgensis IFO 13446T. The procedure:
as §1
Similarly to Example 32(3), reaction solutions of 30 μl were prepared and maintained for 10 minutes at 30° C. […] The reaction solutions after the maintenance were extracted with ethyl acetate and the extracted layers were TLC analyzed. […] A spot corresponding to compound (III) was detected from the reaction solution containing E. coli pKSN1609F extract. In contrast, such a spot was not detected from the reaction solution containing E. coli pKSN2 extract.

With `Cn1c(C(F)(F)F)cc(=O)n(-c2cc(Oc3cccnc3OCC(=O)O)c(Cl)cc2F)c1=O` [compound (XII)], in series [1], the “concentration of the compound detected from metabolism solution (A24) compared to control solution (A24)” value is listed as “lower”.
As for `C[C@@H](Oc1cc(-n2c(=O)cc(C(F)(F)F)n(C)c2=O)c(F)cc1Cl)C(=O)O` [compound (II)], the “spot corresponding to compound (III) labeled with 14C (TLC)” value in series [2], in series [3] and in series [5] was “detected” throughout. The “Herbicidal Activity Barnyardgrass” value in the series with Barnyardgrass is reported as 10. Also, in series [4], the “herbicidal damage of the leaf pieces” value is listed as “grew continuously”. Also, in the series with Ivyleaf morningglory, the “Herbicidal Activity Ivyleaf Morningglory” value was 10.
